Entries after “also recorded” stand apart in the source; their conditions may differ. Where two headings read alike, the source gives them in different places.
How the values were obtained:
[1] = Stability of prodrugs / release of parent drug in Simulated Gastric Fluid (SGF); format: in vitro ADME
Protocol: SGF was prepared according to the procedure described in Test Solution—USP. Thus, 0.2 g of sodium chloride and 0.32 g of purified pepsin (Sigma, derived from porcine stomach mucosa with an activity of 800 to 2500 units per mg of protein) were dissolved in 0.7 mL of hydrochloric acid and sufficient water to make 100 mL. This test solution has a pH of about 1.2 and was utilized for in-vitro studies.
The solution of the test compound in acetonitrile (10 μL of […] solution) was dissolved in 990 μL of biological fluid (SGF/SIF/Human Plasma). The resulting reaction mixtures were incubated at 37° C. At specified time intervals, aliquots (60 μL) were withdrawn and added to acetonitrile (200 μL) and mixed well by vortexing for 2 minutes. The mixture was centrifuged at 13000 rpm for 15 min at 4° C., and the supernatant analyzed by HPLC. The amounts (area percentages) of the remaining intact prodrug (if any) and the released metabolite(s) were estimated by HPLC.
This was performed by using HPLC instrument (Waters alliance), pump 2695, and PDA detector 2996 with the following chromatographic parameters: Wavelength −210 nm; Column-Waters X-Terra RP-18, 150×3.9 mm, 5 μm; Injection volume, 25 μL; Run time, 13 min. Mode of operation was linear gradient with mobile phase A: Acetonitrile and B: 0.1% TFA in water (filtered and degassed). Flow rate was 1.0 mL/min at 25° C.

[2] = Stability of prodrugs at RT and at 50° C. (capped vials); format: physicochemical
[3] = Acute gastric ulcerogenesis activity study; conditions: rats, acute oral; aspirin 100 mg/kg, I-D1-R1 298.85 mg/kg, naproxen 100 mg/kg, I-D2-R1 138.67 mg/kg
Protocol: The animals were sacrificed after 5 h of drug administration. The stomachs of the treated animals were separated, perfused with 2% formalin (10 mL), and a large curvature was excised. The severity of the mucosal damage was assessed on the basis of the size of the observed ulcer lesions in the images captured using a stereomicroscope attached to a digital camera (Stemi 2000, Zeiss, Germany). The Image Pro Plus software (version 5.1) was used to quantify the hemorrhagic/ulcer lesions in pixels and to convert them into mm^2. The total area of lesions was calculated for each treatment group and the measure of gastric ulcers (Mean±SEM) (mm^2) was estimated (FIGS. 5 and 6).

[4] = tested on: serum thromboxane B2 (TXB2) formation; experiment: Inhibition of serum thromboxane B2 (TXB2) formation; format: in vivo, Sprague-Dawley (SD) rats; conditions: Rattus norvegicus, po, 168 h; SD rats, 30 mg/kg aspirin or equimolar 44.82 mg/kg, o.d., 7 days
Protocol: Aspirin is used as an antiplatelet agent for the treatment of cardiovascular complications. […] It is therefore possible to achieve complete suppression of platelet. TXA2 (and also TXB2) formation via chronic administration of aspirin at a dose of 30 mg/daily (Patrignani, P., et al. J. Clin. Invest. 1982, 69, 1366-1372). The antiplatelet activity of aspirin (30 mg/kg) and its prodrug I-D1-R1 (at a dose equimolar to 30 mg/kg dose of aspirin) was evaluated in Sprague-Dawley (SD) rats through estimation of serum TXB2 levels (Esser, R. et al., Br. J. Pharmacol. 2006, 144, 538-550) and the experimental results are presented in FIG. 7.
In vivo TXB2 inhibition potential of aspirin and NO-aspirin prodrugs was assessed in Sprague-Dawley (SD) rats; the serum TXB2 levels were estimated according to the reported procedure (R. Esser, R., et al., Br. J. Pharmacol. 2006, 144, 538-550). Thus, vehicle, aspirin (30 mg/kg) or aspirin prodrug I-D1-R1 (44.82 mg/kg which is equivalent to 30 mg/kg dose of aspirin) were administered orally to the overnight fasted SD rats. […] The serum TXB2 concentrations were determined by enzyme immunoassay (EIA) using commercially available TXB2 estimation kit (Cayman Chemicals, USA), according to the method described in kit information booklet.

[5] = simulated gi fluid, 0 h, 1 µM, pH 1.2
[6] = simulated gi fluid, 1 µM, pH 1.2
[7] = simulated gi fluid, 5 min, 1 µM, pH 1.2
[8] = simulated gi fluid, 10 min, 1 µM, pH 1.2
[9] = simulated gi fluid, 0.5 h, 1 µM, pH 1.2
[10] = simulated gi fluid, 1 h, 1 µM, pH 1.2
[11] = simulated gi fluid, 2 h, 1 µM, pH 1.2
[12] = simulated gi fluid, 3 h, 1 µM, pH 1.2

SMILES | Release of parent drug on incubation in SGF (in words) [1] | Prodrug Remaining (%) [1, 5] [%] | t1/2 of prodrug in SGF [1, 6] [h] | Prodrug Remaining (%) [1, 7] [%] | Prodrug Remaining (%) [1, 8] [%] | Prodrug Remaining (%) [1, 9] [%] | Prodrug Remaining (%) [1, 10] [%] | Prodrug Remaining (%) [1, 11] [%] | Prodrug Remaining (%) [1, 12] [%] | also measured
CCC(OC(=O)[C@@H](C)c1ccc2cc(OC)ccc2c1)O[N+](=O)[O-] (stereo partly drawn) [I-D2-R2, (2S)-1-(nitrooxy)propyl 2-(6-methoxynaphthalen-2-yl)propanoate] | released naproxen | 100 | ~1 | 94.33 | 90.43 | 62.15 | 51.01 | 39.08 | 6.77 | –
COc1ccc2cc([C@H](C)C(=O)OC(C)O[N+](=O)[O-])ccc2c1 (stereo partly drawn) [I-D2-R1, (2S)-1-(nitrooxy)ethyl 2-(6-methoxynaphthalen-2-yl)propanoate] | released quantitative amounts of the parent drug, naproxen | 100.00 | – | 84.68 | 74.58 | 32.79 | 0.00 | 0.00 | 0.00 | Nap (Naproxen) formed on storage ([2]; 50° C., 0 h): NIL; Prodrug (area %) on storage ([2]; 50° C., 0 h): 99.12%; Nap (Naproxen) formed on storage ([2]; 50° C., 25 d): 0.33%; Prodrug (area %) on storage ([2]; 50° C., 25 d): 99.00%; Nap (Naproxen) formed on storage ([2]; RT, 0 h): NIL; Prodrug (area %) on storage ([2]; RT, 0 h): 99.12%; Nap (Naproxen) formed on storage ([2]; RT, 25 d): 0.2%; Prodrug (area %) on storage ([2]; RT, 25 d): 98.87%; Stability on storage (in words) ([2]; both at RT and at 50° C., up to 25 days): remained stable; melting point: 69 to 71 °C; Development of gastric ulcers or lesions [3]: none of the animals
COc1ccc2cc([C@H](C)C(=O)OCCCO[N+](=O)[O-])ccc2c1 [II-D2-X3, reference compound] | – | 100.00 | – | 100.00 | 100.00 | 100.00 | 100.00 | 100.00 | 100.00 | –
COc1ccc2cc([C@H](C)C(=O)OCCCCO[N+](=O)[O-])ccc2c1 [II-D2-X4, reference compound] | – | 100.00 | – | 100.00 | 100.00 | 100.00 | 100.00 | 100.00 | 100.00 | –
CC(=O)Oc1ccccc1C(=O)O [Aspirin, aspirin, reference compound] | – | – | – | – | – | – | – | – | – | AUC of aspirin (released / remaining) in SGF ([1]; 1 µM, pH 1.2): 12348 µM·h; inhibition at 30 mg/kg [4]: 76%
CC(OC(=O)CCCc1ccc(N(CCCl)CCCl)cc1)O[N+](=O)[O-] (stereo not shown) [I-D3-R1, 1-(nitrooxy)ethyl 4-(4-(bis(2-chloroethyl)amino)phenyl)butanoate] | – | – | – | – | – | – | – | – | – | Prodrug Remaining (%) ([1]; SGF, 0 min): 92.12%; Prodrug Remaining (%) ([1]; SGF, 5 min): 20.49%; Prodrug Remaining (%) ([1]; SGF, 10 min): 13.84%; Prodrug Remaining (%) ([1]; SGF, 15 min): 8.59%; Prodrug Remaining (%) ([1]; SGF, 30 min): 0.00%; Prodrug Remaining (%) ([1]; SGF, 60 min): 0.00%; Prodrug Remaining (%) ([1]; SGF, 120 min): 0.00%; Prodrug Remaining (%) ([1]; SGF, 180 min): 0.00%; Release of parent drug on incubation in SGF (in words) ([1]; SGF, whole time course): quantitative release of the parent drug, chlorambucil; also recorded: released its parent drug chlorambucil quantitatively; half-life at 1 µM ([1]; simulated gi fluid, pH 1.2, SGF, read-out: t1/2 of prodrug in SGF): < 5 min
CCCC(OC(=O)[C@@H](C)c1ccc2cc(OC)ccc2c1)O[N+](=O)[O-] (stereo partly drawn) [I-D2-R3, (2S)-1-(nitrooxy)butyl 2-(6-methoxynaphthalen-2-yl)propanoate] | released naproxen | 100 | ~2.5 | 96.35 | 93.61 | 82.73 | 75.48 | 57.55 | 39.00 | –
COc1ccc2cc([C@H](C)C(=O)OCCO[N+](=O)[O-])ccc2c1 [II-D2-X2, reference compound] | no release of parent drug naproxen | 100.00 | – | 99.68 | 99.79 | 99.75 | 99.67 | 99.39 | 99.19 | Fate of prodrug on incubation in SGF (in words) [1]: remained intact
CC(=O)Oc1ccccc1C(=O)Oc1cccc(CO[N+](=O)[O-])c1 [II-D1-X1, reference compound] | – | – | – | – | – | – | – | – | – | Fate of prodrug on incubation in SGF (in words) [1]: remained intact; % of Prodrug remaining (μM) [1, 5]: 100.00%; % of Prodrug remaining (μM) [1, 7]: 100.00%; % of Prodrug remaining (μM) [1, 8]: 100.00%; % of Prodrug remaining (μM) [1, 9]: 100.00%; % of Prodrug remaining (μM) [1, 10]: 100.00%; % of Prodrug remaining (μM) [1, 11]: 100.00%
CCCCC(OC(=O)[C@@H](C)c1ccc2cc(OC)ccc2c1)O[N+](=O)[O-] (stereo partly drawn) [I-D2-R4, (2S)-1-(nitrooxy)pentyl 2-(6-methoxynaphthalen-2-yl)propanoate] | released appreciable amounts of the parent drug naproxen | 100 | >3 | 97.74 | 96.18 | 90.53 | 88.87 | 79.97 | 71.04 | –
